Source: PubChem BioAssay AID2060509 (Molecular Pharmacology Branch, DTP, NCI, 2025)

Tested on: 485176-168-R4-J1-PDC spheroids with HUVEC/MSC, viability
Test: Anticancer human tumor 485176-168-R4-J1-PDC patient-derived pancreatic adenocarcinoma cell line growth inhibition [GQUAD]
Details: for IC50: curve of first compound; for viability, T/C: stronger effect = lower value
Description: DNA G-quadruplex Stabilizer Agents in Combinations in Complex Spheroids
A high-throughput screen of multi-cell type tumor spheroids was designed to identify active combinations of DNA G-quadruplex stabilizer agents and targeted small molecules. Complex spheroids include a stromal component modeled by human endothelial cells (HUVEC) and fibroblasts modeled by human mesenchymal stem cells (MSCs). The concentration ranges selected for each drug and investigational agent were based upon clinically achievable concentrations if the clinical Cmax of the agent was known.
Compounds. The drugs and investigational agents: pidnarulex (CX-5461; NSC782164), APTO-253 (NSC789042), BRACO-19 (NSC847499), peposertib (NSC802822), ceralasertib (NSC780249), elimusertib (NSC800525), camonsertib (NSC841442), AZD-1390 (NSC803789), olaparib (NSC753686), talazoparib (NSC767125), ART-558 (NSC835418), sotorasib (NSC818433), MRTX-1133 (NSC836407), SN-38 (NSC673596), topotecan (NSC609699), etoposide (NSC141540), doxorubicin (NSC123127), gemcitabine (NSC613327), 5-fluorouracil (NSC19893), paclitaxel (NSC125973), vemurafenib (NSC761431), panobinostat (NSC761190), R-306465 (JNJ-16241199; NSC773264), adavosertib (NSC754352), TP-3654 (NSC805149), carboplatin (NSC241240), KSQ-4279 (NSC840948), and staurosporine (NSC755774) were obtained from the National Cancer Institute (NCI) Developmental Therapeutics Program Chemical Repository (34). The FDA-approved anticancer drug set is available from the NCI Developmental Therapeutics Program. […] The stock solutions were prepared in dimethyl sulfoxide (DMSO, Sigma-Aldrich, St. Louis, MO, cat. D2650) at 800-fold the tested concentration and stored at -70 degrees C prior to their use. All drugs and investigational agents were tested over a range starting from a high concentration at or near the clinical Cmax and decreasing in half-log increments. If the clinical Cmax for an agent had not been determined, the highest concentration tested was 10 microM.
2.3 Cell Culture. All cells were maintained in an incubator at 37 degrees C and 5% CO2 with 95% humidity. The PDC lines were cultured according to standard operating procedures established by the NCI PDMR. All PDCs were thawed and cultured in Matrigel-coated flasks prepared with a working solution of 1X Ham's F-12 nutrient mix, without supplementation (Invitrogen, cat. 11765054), 100 U/mL penicillin-streptomycin (Invitrogen, cat. 15140122), and 2.5% Matrigel (Corning Inc., cat. 354248) for the first three passages. The 857933-349-R-J2-PDC line was cultured in 6C/Colon 1B media, which includes advanced DMEM/F-12 (Thermo Fisher Scientific, cat. 12634028), 10 mM HEPES (Thermo Fisher Scientific, cat. 15630080), 1X GlutaMAX supplement (Thermo Fisher Scientific, cat. 35050061), 0.1 mg/mL primocin (InvivoGen, cat. ant-pm-2), 10% defined fetal bovine serum, heat inactivated (HyClone Laboratories Inc., cat. SH30070.03HI), 50% L-WRN conditioned media (ATCC, cat. CRL-3276), 1.25 mM N-Acetyl-L-cysteine (Sigma-Aldrich, cat. A9165), 10 mM nicotinamide (Sigma-Aldrich, cat. N0636), 1X B-27 supplement (Thermo Fisher Scientific, cat. 17504044), 1X N-2 supplement (Thermo Fisher Scientific, cat. 17502048), 10 microM Y-27632 dihydrochloride (Tocris Bioscience, cat. 1254), and 50 ng/mL human EGF recombinant protein (Thermo Fisher Scientific, cat. PHG0311). The 485176-168-R4-J1-PDC line was cultured in Panc media, which includes all 6C/Colon 1B media components plus 100 ng/mL human FGF-10 (Thermo Fisher Scientific, cat. 100-26), 500 nM SB-431542 (Selleckchem, cat. S1067), and gastrin (Tocris, cat. 3006).
[…]

[1] = second compound 0.0316 µM, first compound 0.0316 µM
[2] = second compound 0.0316 µM, first compound 0.1 µM
[3] = second compound 0.0316 µM, first compound 0.316 µM
[4] = second compound 0.0316 µM, first compound 1 µM
[5] = second compound 0.0316 µM, first compound 3.16 µM
[6] = second compound 0.0316 µM, first compound 10 µM
[7] = second compound 0.1 µM, first compound 0.0316 µM
[8] = second compound 0.1 µM, first compound 0.1 µM
[9] = second compound 0.1 µM, first compound 0.316 µM
[10] = second compound 0.1 µM, first compound 1 µM
[11] = second compound 0.1 µM, first compound 3.16 µM
[12] = second compound 0.1 µM, first compound 10 µM
[13] = second compound 0.316 µM, first compound 0.0316 µM
[14] = second compound 0.316 µM, first compound 0.1 µM
[15] = second compound 0.316 µM, first compound 0.316 µM
[16] = second compound 0.316 µM, first compound 1 µM
[17] = second compound 0.316 µM, first compound 3.16 µM
[18] = second compound 0.316 µM, first compound 10 µM
[19] = second compound 1 µM, first compound 0.0316 µM
[20] = second compound 1 µM, first compound 0.1 µM
[21] = second compound 1 µM, first compound 0.316 µM
[22] = second compound 1 µM, first compound 1 µM
[23] = second compound 1 µM, first compound 3.16 µM
[24] = second compound 1 µM, first compound 10 µM
[25] = second compound 3.16 µM, first compound 0.0316 µM
[26] = second compound 3.16 µM, first compound 0.1 µM
[27] = second compound 3.16 µM, first compound 0.316 µM
[28] = second compound 3.16 µM, first compound 1 µM
[29] = second compound 3.16 µM, first compound 3.16 µM
[30] = second compound 3.16 µM, first compound 10 µM
[31] = second compound 10 µM, first compound 0.0316 µM
[32] = second compound 10 µM, first compound 0.1 µM
[33] = second compound 10 µM, first compound 0.316 µM
[34] = second compound 10 µM, first compound 1 µM
[35] = second compound 10 µM, first compound 3.16 µM
[36] = second compound 10 µM, first compound 10 µM
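Further: spheroids exposed to compounds for seven days before readout.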
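Wherever viability, T/C is given: percent viability relative to DMSO vehicle control wells as 100%.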

SMILES: COc1cccc2c1C(=O)c1c(O)c3c(c(O)c1C2=O)CC(O)(C(=O)CO)CC3OC1CC(N)C(O)C(C)O1 (stereo unspecified) + CN(C)c1ccc(Nc2c3ccc(NC(=O)CCN4CCCC4)cc3nc3cc(NC(=O)CCN4CCCC4)ccc23)cc1
- IC50 (second compound 0.0316 µM): 271 nM
- IC50 (second compound 0.1 µM): 263 nM
- IC50 (second compound 0.316 µM): 417 nM
- IC50 (second compound 1 µM): 412 nM
- IC50 (second compound 3.16 µM): 396 nM
- IC50 (second compound 10 µM): 305 nM
- viability, T/C [1]: 104%
- viability, T/C [2]: 65.5%
- viability, T/C [3]: 59.2%
- viability, T/C [4]: 15.4%
- viability, T/C [5]: 3.54%
- viability, T/C [6]: 0.22%
- viability, T/C [7]: 95.2%
- viability, T/C [8]: 70.9%
- viability, T/C [9]: 49.2%
- viability, T/C [10]: 17.8%
- viability, T/C [11]: 2.43%
- viability, T/C [12]: 0.16%
- viability, T/C [13]: 84.9%
- viability, T/C [14]: 67%
- viability, T/C [15]: 62%
- viability, T/C [16]: 22.5%
- viability, T/C [17]: 3.97%
- viability, T/C [18]: 0.2%
- viability, T/C [19]: 99.5%
- viability, T/C [20]: 78.2%
- viability, T/C [21]: 64.1%
- viability, T/C [22]: 17.4%
- viability, T/C [23]: 4.15%
- viability, T/C [24]: 0.16%
- viability, T/C [25]: 84.2%
- viability, T/C [26]: 83.2%
- viability, T/C [27]: 53.4%
- viability, T/C [28]: 25.7%
- viability, T/C [29]: 2.96%
- viability, T/C [30]: 0.21%
- viability, T/C [31]: 72.2%
- viability, T/C [32]: 68.4%
- viability, T/C [33]: 48.5%
- viability, T/C [34]: 22.9%
- viability, T/C [35]: 5.36%
- viability, T/C [36]: 0.33%

SMILES: Cc1cccc(N(C)C(=O)C2C(O)CCN2c2nc(C)cc(C(F)(F)F)c2C#N)c1 (stereo unspecified) + CN(C)c1ccc(Nc2c3ccc(NC(=O)CCN4CCCC4)cc3nc3cc(NC(=O)CCN4CCCC4)ccc23)cc1
- IC50 (second compound 0.0316 µM): > 10000 nM
- IC50 (second compound 0.1 µM): > 10000 nM
- IC50 (second compound 0.316 µM): > 10000 nM
- IC50 (second compound 1 µM): > 10000 nM
- IC50 (second compound 3.16 µM): > 10000 nM
- IC50 (second compound 10 µM): > 10000 nM
- viability, T/C [1]: 103%
- viability, T/C [2]: 93.5%
- viability, T/C [3]: 86.2%
- viability, T/C [4]: 105%
- viability, T/C [5]: 111%
- viability, T/C [6]: 102%
- viability, T/C [7]: 91.9%
- viability, T/C [8]: 102%
- viability, T/C [9]: 98%
- viability, T/C [10]: 84.2%
- viability, T/C [11]: 94.3%
- viability, T/C [12]: 98.9%
- viability, T/C [13]: 106%
- viability, T/C [14]: 89.1%
- viability, T/C [15]: 109%
- viability, T/C [16]: 109%
- viability, T/C [17]: 118%
- viability, T/C [18]: 94.3%
- viability, T/C [19]: 93.5%
- viability, T/C [20]: 93.6%
- viability, T/C [21]: 104%
- viability, T/C [22]: 112%
- viability, T/C [23]: 101%
- viability, T/C [24]: 85.6%
- viability, T/C [25]: 110%
- viability, T/C [26]: 95.4%
- viability, T/C [27]: 80.6%
- viability, T/C [28]: 94%
- viability, T/C [29]: 111%
- viability, T/C [30]: 98.2%
- viability, T/C [31]: 97.3%
- viability, T/C [32]: 93%
- viability, T/C [33]: 81.1%
- viability, T/C [34]: 86.7%
- viability, T/C [35]: 62%
- viability, T/C [36]: 59.2%

SMILES: Nc1ccn(C2OC(CO)C(O)C2(F)F)c(=O)n1 (stereo unspecified) + CN(C)c1ccc(Nc2c3ccc(NC(=O)CCN4CCCC4)cc3nc3cc(NC(=O)CCN4CCCC4)ccc23)cc1
- IC50 (second compound 0.0316 µM): 49.1 nM
- IC50 (second compound 0.1 µM): 45.9 nM
- IC50 (second compound 0.316 µM): 43.6 nM
- IC50 (second compound 1 µM): 61.2 nM
- IC50 (second compound 3.16 µM): 55.9 nM
- IC50 (second compound 10 µM): 41.3 nM
- viability, T/C [1]: 70.3%
- viability, T/C [2]: 17.4%
- viability, T/C [3]: 10.6%
- viability, T/C [4]: 9.81%
- viability, T/C [5]: 10.5%
- viability, T/C [6]: 12.1%
- viability, T/C [7]: 63.7%
- viability, T/C [8]: 22%
- viability, T/C [9]: 10.5%
- viability, T/C [10]: 10.5%
- viability, T/C [11]: 10.3%
- viability, T/C [12]: 10.9%
- viability, T/C [13]: 62.1%
- viability, T/C [14]: 19.4%
- viability, T/C [15]: 10.4%
- viability, T/C [16]: 10.9%
- viability, T/C [17]: 10.5%
- viability, T/C [18]: 13.7%
- viability, T/C [19]: 90.1%
- viability, T/C [20]: 20.1%
- viability, T/C [21]: 10.6%
- viability, T/C [22]: 12.5%
- viability, T/C [23]: 11.6%
- viability, T/C [24]: 9.65%
- viability, T/C [25]: 81.3%
- viability, T/C [26]: 18.1%
- viability, T/C [27]: 10.6%
- viability, T/C [28]: 11.5%
- viability, T/C [29]: 10%
- viability, T/C [30]: 11.9%
- viability, T/C [31]: 58%
- viability, T/C [32]: 23.7%
- viability, T/C [33]: 10.4%
- viability, T/C [34]: 10.9%
- viability, T/C [35]: 11.1%
- viability, T/C [36]: 11.2%
